Measured values reported in the NIST ThermoML archive (doi:10.1016/j.jct.2016.03.026).

Assay: xn = mol fraction of the nth substance listed
Details: 313.15 K, Fluid (supercritical or subcritical phases), x1 = 0.97; for mass density: Vibrating tube method; for speed of sound: Frequency=5 MHz, Pulse-echo method

O=C=O [carbon dioxide] + CO
Details	mass density [kg/m3]	speed of sound [m/s]
17250 kPa	821	–
17275 kPa	821.23	–
17300 kPa	821.48	–
17325 kPa	821.73	–
17350 kPa	821.98	–
17375 kPa	822.18	–
17400 kPa	822.42	–
17425 kPa	822.65	–
17450 kPa	822.87	–
17475 kPa	823.11	–
17500 kPa	823.28	–
17525 kPa	823.52	–
17550 kPa	823.71	–
17575 kPa	823.99	–
17600 kPa	824.21	–
17625 kPa	824.46	–
17650 kPa	824.71	–
17675 kPa	824.95	–
17700 kPa	825.17	–
17725 kPa	825.45	–
17750 kPa	825.67	–
17775 kPa	825.94	–
17800 kPa	826.17	–
17825 kPa	826.41	–
17850 kPa	826.64	–
17875 kPa	826.87	–
17900 kPa	827.14	–
17925 kPa	827.38	–
17950 kPa	827.61	–
17975 kPa	827.85	–
18000 kPa	828.1	–
18025 kPa	828.35	–
18050 kPa	828.6	–
18075 kPa	828.84	–
18100 kPa	829.11	–
18125 kPa	829.36	–
18150 kPa	829.59	–
18175 kPa	829.87	–
18200 kPa	830.13	–
18225 kPa	830.35	–
18250 kPa	830.62	–
18275 kPa	830.86	–
18300 kPa	831.12	–
18325 kPa	831.37	–
18350 kPa	831.62	–
18375 kPa	831.85	–
18400 kPa	832.11	–
18425 kPa	832.31	–
18450 kPa	832.53	–
18475 kPa	832.8	–
18500 kPa	833.03	–
18525 kPa	833.28	–
18550 kPa	833.5	–
18575 kPa	833.75	–
18600 kPa	833.97	–
18625 kPa	834.2	–
18650 kPa	834.43	–
18675 kPa	834.69	–
18700 kPa	834.94	–
18725 kPa	835.15	–
18750 kPa	835.38	–
18775 kPa	835.62	–
18800 kPa	835.84	–
18825 kPa	836.06	–
18850 kPa	836.28	–
18875 kPa	836.55	–
18900 kPa	836.78	–
18925 kPa	837.02	–
18950 kPa	837.22	–
18975 kPa	837.47	–
19000 kPa	837.72	–
19025 kPa	837.93	–
19050 kPa	838.15	–
19075 kPa	838.38	–
19100 kPa	838.61	–
19125 kPa	838.87	–
19150 kPa	839.12	–
19175 kPa	839.32	–
19200 kPa	839.61	–
19225 kPa	839.82	–
19250 kPa	840.03	–
19275 kPa	840.27	–
19300 kPa	840.49	–
19325 kPa	840.71	–
19350 kPa	840.94	–
19375 kPa	841.18	–
19400 kPa	841.4	–
19425 kPa	841.61	–
19450 kPa	841.84	–
19475 kPa	842.08	–
19500 kPa	842.31	–
19525 kPa	842.53	–
19550 kPa	842.75	–
19575 kPa	842.96	–
19600 kPa	843.19	–
19625 kPa	843.37	–
19650 kPa	843.59	–
19675 kPa	843.84	–
19700 kPa	844.02	–
19725 kPa	844.25	–
19750 kPa	844.43	–
19775 kPa	844.64	–
19800 kPa	844.89	–
19825 kPa	845.06	–
19850 kPa	845.27	–
19875 kPa	845.47	–
19900 kPa	845.69	–
19925 kPa	845.91	–
19950 kPa	846.1	–
19975 kPa	846.29	–
20000 kPa	846.53	–
31890 kPa	–	648.6
34940 kPa	–	674.9
39990 kPa	–	714.5
44940 kPa	–	749.7
49940 kPa	–	782
54960 kPa	–	812.2
60140 kPa	–	841.3
65170 kPa	–	867.7
70010 kPa	–	891.8
75170 kPa	–	916.2
80060 kPa	–	938.2
